These are literature values, as cited in patent US7550449B2, “Carba cyclic phosphatidic acid derivative” (priority 2002, dated 2009).

Data set [1] relates to MM1 cells, highly invasive clones of a rat ascites hepatoma cell line (AH-130). The following applies: literature (Mukai et al. 1999).
Data set [2] deals with human fibrosarcoma cells (HT-1080). The note with it: cells require neither serum nor LPA for invasion; literature.
Data set [3] concerns MM1 cells. The following applies: within several minutes of addition, effect not lost with LPA, literature.
Data set [4] relates to Rho. The following applies: literature (Mukai et al. 2000).

On to `CCCCCCCCCCCCCCCC(=O)OCC1COP(=O)(O)O1` (stereo not shown) [Pal-cPA], for which the “invasion suppressing activity among cPA derivatives with different fatty acids at sn-1” value in data set [1] is given as “strongest invasion suppressing activity”. Further, in data set [2], the “suppression of invasion of HT-1080 cells” value is “significantly suppressed”. The “intracellular cAMP concentration” value in data set [3] is listed as “elevated”. Further, in data set [4], the “LPA-mediated Rho activation” value was “inhibited”.
